Entries after “also recorded” stand apart in the source; their conditions may differ.
Assays:
[1] = target: T1, bovine parathyroid cell calcium receptor (Bos taurus, UniProt P35384); test: Cl- current in Xenopus oocytes expressing BoPCaR 1; type: cell-based; details: for effect on Cl- current: BoPCaR 1-injected oocytes; for effect in control oocytes: uninjected, water or rat liver mRNA oocytes
T1 construct: expressed in transfected cells; host or cells: Xenopus laevis oocytes injected with BoPCaR 1 cRNA
T1 sequence (P35384 20-1085): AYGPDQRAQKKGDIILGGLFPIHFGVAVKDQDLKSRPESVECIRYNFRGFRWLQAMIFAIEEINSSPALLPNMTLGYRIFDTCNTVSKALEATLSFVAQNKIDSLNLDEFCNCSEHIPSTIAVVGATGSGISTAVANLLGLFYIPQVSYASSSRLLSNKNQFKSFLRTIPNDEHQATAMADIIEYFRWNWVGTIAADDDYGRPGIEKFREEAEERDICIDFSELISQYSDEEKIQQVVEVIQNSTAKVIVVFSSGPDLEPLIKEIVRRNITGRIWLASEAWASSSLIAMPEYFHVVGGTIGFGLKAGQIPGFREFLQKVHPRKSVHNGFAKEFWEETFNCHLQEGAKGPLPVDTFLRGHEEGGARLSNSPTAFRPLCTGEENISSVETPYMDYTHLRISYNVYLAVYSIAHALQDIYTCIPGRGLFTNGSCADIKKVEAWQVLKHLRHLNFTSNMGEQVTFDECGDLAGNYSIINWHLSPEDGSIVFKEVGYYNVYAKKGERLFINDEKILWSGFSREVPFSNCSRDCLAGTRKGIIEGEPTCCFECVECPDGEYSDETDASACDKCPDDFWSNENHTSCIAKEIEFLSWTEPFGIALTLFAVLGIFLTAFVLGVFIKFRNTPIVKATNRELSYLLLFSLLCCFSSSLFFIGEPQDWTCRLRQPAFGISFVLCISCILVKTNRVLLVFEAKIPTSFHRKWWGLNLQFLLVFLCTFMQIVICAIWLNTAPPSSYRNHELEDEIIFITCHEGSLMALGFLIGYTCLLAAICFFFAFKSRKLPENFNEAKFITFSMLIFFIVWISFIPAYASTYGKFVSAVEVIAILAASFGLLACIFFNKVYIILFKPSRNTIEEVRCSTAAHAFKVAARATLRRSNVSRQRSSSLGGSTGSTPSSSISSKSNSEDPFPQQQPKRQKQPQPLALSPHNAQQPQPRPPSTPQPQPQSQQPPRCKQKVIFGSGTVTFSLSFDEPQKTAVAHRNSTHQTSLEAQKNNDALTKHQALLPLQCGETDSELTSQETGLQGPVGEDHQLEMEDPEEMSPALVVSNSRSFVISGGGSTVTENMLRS
Procedure: Several pharmacological and biochemical criteria were used to identify this clone as encoding a bona fide bovine parathyroid Ca^2+ receptor. […] These responses increased markedly over a period of one to four days after injection of the eggs with cRNA prepared from the BoPCaR 1 cDNA. Furthermore, the ranges of the concentrations of the two cations eliciting this response were very similar to those shown previously to act on bovine parathyroid cells in vitro.
Xenopus oocytes were injected with BoPCaR 1, the 5.3 Kb cDNA encoding a bovine parathyroid cell calcium receptor as described in Example 25. After two to three days, Cl^- currents were examined in the oocytes using a two-electrode voltage clamp.
Xenopus oocytes were injected with BoPCaR 1 as described in Example 25. After two to three days, Cl^- currents were examined in the oocytes using two electrode voltage clamp.

C-cell calcium receptor = target: T2, C-cell calcium receptor (Rattus norvegicus, UniProt P48442); type: cell-based
T2 construct: Neoplastic C-cells derived from a rat medullary thyroid carcinoma (rMTC 6-23); host or cells: rMTC 6-23 cells
T2 sequence (P48442 20-1079): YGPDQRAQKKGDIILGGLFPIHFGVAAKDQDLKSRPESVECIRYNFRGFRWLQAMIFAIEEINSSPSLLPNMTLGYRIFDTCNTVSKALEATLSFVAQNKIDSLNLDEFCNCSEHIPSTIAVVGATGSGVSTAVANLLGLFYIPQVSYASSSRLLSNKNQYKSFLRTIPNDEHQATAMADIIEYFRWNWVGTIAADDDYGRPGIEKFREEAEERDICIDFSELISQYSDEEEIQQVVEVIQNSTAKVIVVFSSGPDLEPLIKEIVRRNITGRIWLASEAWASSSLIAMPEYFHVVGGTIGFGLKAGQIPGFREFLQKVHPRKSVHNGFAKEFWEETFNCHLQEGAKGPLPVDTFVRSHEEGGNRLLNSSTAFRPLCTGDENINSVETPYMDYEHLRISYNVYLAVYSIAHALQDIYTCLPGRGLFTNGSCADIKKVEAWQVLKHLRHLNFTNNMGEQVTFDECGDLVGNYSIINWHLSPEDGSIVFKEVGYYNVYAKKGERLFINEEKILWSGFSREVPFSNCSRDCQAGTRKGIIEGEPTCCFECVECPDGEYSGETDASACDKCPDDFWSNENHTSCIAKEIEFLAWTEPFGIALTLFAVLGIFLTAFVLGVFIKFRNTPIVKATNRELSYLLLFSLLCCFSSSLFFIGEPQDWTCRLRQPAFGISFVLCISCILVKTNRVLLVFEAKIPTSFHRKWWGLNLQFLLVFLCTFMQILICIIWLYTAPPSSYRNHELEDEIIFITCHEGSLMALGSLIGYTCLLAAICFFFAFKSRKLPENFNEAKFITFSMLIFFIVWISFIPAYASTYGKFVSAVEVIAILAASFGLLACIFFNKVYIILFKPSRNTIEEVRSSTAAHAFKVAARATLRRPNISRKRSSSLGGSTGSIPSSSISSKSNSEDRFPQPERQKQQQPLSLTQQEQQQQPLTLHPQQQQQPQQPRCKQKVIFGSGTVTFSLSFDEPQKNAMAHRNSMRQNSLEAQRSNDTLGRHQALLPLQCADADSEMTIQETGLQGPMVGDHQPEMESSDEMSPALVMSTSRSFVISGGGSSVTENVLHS
Excerpt: To assess the effects of molecular polycations on C-cells, a neoplastic cell line, derived from a rat medullary thyroid carcinoma (rMTC 6-23 cells) was used.

Compound	effect on Cl- current [1]	effect on Cl- current in absence of extracellular Ca2+ [1]	effect in control oocytes [1]	effect on [Ca2+]i in C-cells (C-cell calcium receptor)	effect on extracellular Ca2+ concentration-response curve [1]	effective concentration range, Cl- current ([1]; BoPCaR 1 oocytes) [µM]
NCCCNCCCCNCCCNCCCNCCCNC(=O)Cc1c[nH]c2ccccc12 [NPS 019]	caused oscillatory increases in the Cl^-	persisted in the absence of extracellular Ca^2+	Neither NPS 017 nor NPS 019 elicited changes in Cl^-	mobilization of intracellular Ca^2+		
COc1cccc([C@@H](C)NCCCc2ccccc2Cl)c1 [NPS R-568, (R)-(+)-N-[3-(2-chlorophenyl)propyl]-α-methyl-3-methoxybenzylamine]	caused increases in the Cl^-	abolished in the absence of extracellular Ca^2+	failed to evoke responses		potentiated the responses to submaximal concentrations of extracellular Ca^2+; also recorded: shift the extracellular Ca^2+ concentration-response curve to the left	
NC[C@@H]1O[C@H](O[C@H]2[C@@H](O)[C@H](O[C@@H]3[C@@H](O)[C@H](N)C[C@H](N)[C@H]3O[C@H]3O[C@H](CN)[C@@H](O)[C@H](O)[C@H]3N)O[C@@H]2CO)[C@H](N)[C@@H](O)[C@@H]1O [Neomycin]	large inward currents	persist despite removal of extracellular Ca^2+		fails to affect basal or evoked increases in C-cells; also recorded: without effect on basal [Ca^2+ ]i; also recorded: fail to affect the calcium receptors on C-cells or osteoclasts		20 to 100
